Molecular target: T1, PLK1 (Homo sapiens, UniProt P53350)
T1 construct: PLK kinase domain (amino acids 21-346 preceded by MKKGHHHHHHD); made in house; host or cells: baculovirus infected T. ni cells
Assay: Assay for inhibition of PLK1 (SPA kinase assay)
Format: biochemical
Settings: 1 μM ATP, 2 nM PLK1 kinase domain, read-out: PLK1 pIC50 (converted)
Procedure: I. Assay for Inhibition of PLK1
A. Preparation of 6× N-terminal His-tagged PLK Kinase Domain
6× N-terminal His-tagged PLK kinase domain (amino acids 21-346 preceded by MKKGHHHHHHD) SEQ ID: No. 1. was prepared from baculovirus infected T. ni cells under polyhedrin promoter control. All procedures were performed at 4° C. Cells were lysed In 50 mM HEPES, 200 mM NaCl, 50 mM imidazole, 5% glycerol; pH 7.5. The homogenate was centrifuged at 14K rpm in a SLA-1500 rotor for 1 hr and the supernatant filtered through a 1.2 micron filter. The supernatant was loaded onto a Nickel chelating Sepharose (Amersham Pharmacia) column and washed with lysis buffer. Protein was eluted using 20%, 30% and 100% buffer B steps where buffer B was 50 mM HEPES, 200 mM NaCl, 300 mM imidazole, 5% glycerol; pH 7.5. Fractions containing PLK were determined by SDS-PAGE. Fractions containing PLK were diluted five-fold with 50 mM HEPES, 1 mM DTT, 5% glycerol; pH 7.5, then loaded on an SP Sepharose (Amersham Pharmacia) column. After washing the column with 50 mM HEPES, 1 mM DTT, 5% glycerol; pH 7.5, PLK was step eluted with 50 mM HEPES, 1 mM DTT, 500 mM NaCl; 5% glycerol; pH 7.5. PLK was concentrated using a 10 kDa molecular weight cutoff membrane and then loaded onto a Superdex 200 gel filtration (Amersham Pharmacia) column equilibrated in 25 mM HEPES, 1 mM DTT, 500 mM NaCl, 5% glycerol; pH 7.5. Fractions containing PLK were determined by SDS-PAGE. PLK was pooled, aliquoted and stored at −80° C. Samples were quality controlled using mass spectrometry, N-terminal sequencing and amino acid analysis.
B. Enzyme Activity +/− Inhibitors was Determined as Follows:
All measurements were obtained under conditions where signal production increased linearly with time and enzyme. Test compounds were added to white 384-well assay plates (0.1 μL for 10 μL and some 20 μL assays, 1 μL for some 20 μL assays) at variable known concentrations in 100% DMSO. DMSO (1-5% final, as appropriate) and EDTA (65 mM in reaction) were used as controls. Reaction Mix was prepared as follows at 22° C.: • 25 mM HEPES, pH 7.2 • 15 mM MgCl2 • 1 μM ATP • 0.05 μCi/well ^33P-γ ATP (10 Ci/mMol) • 1 μM substrate peptide (Biotin-Ahx-SFNDTLDFD) SEQ ID:No. 2. • 0.15 mg/mL BSA • 1 mM DTT • 2 nM PLK1 kinase domain (added last)
Reaction Mix (10 or 20 μL) was quickly added to each well immediately following addition of enzyme via automated liquid handlers and incubated 1-1.5 h at 22° C. The 20 μL enzymatic reactions were stopped with 50 μL of stop mix (50 mM EDTA, 4.0 mg/mL Streptavidin SPA beads in Standard Dulbecco's PBS (without Mg^2+ and Ca^2+), 50 μM ATP) per well. The 10 μL reactions were stopped with 10 μL of stop mix (50 mM EDTA, 3.0 mg/mL Streptavidin-coupled SPA imaging Beads (“LeadSeeker”) in Standard Dulbecco's PBS (without Mg^2+ and Ca^2+), 50 μM ATP) per well. Plates were sealed with clear plastic seals, spun at 500×g for 1 min or settled overnight, and counted in Packard TopCount for 30 seconds/well (regular SPA) or imaged using a Viewlux imager (LeadSeeker SPA). Signal above background (EDTA controls) was converted to percent Inhibition relative to that obtained in control (DMSO-only) wells.

T1 sequence (P53350 21-346): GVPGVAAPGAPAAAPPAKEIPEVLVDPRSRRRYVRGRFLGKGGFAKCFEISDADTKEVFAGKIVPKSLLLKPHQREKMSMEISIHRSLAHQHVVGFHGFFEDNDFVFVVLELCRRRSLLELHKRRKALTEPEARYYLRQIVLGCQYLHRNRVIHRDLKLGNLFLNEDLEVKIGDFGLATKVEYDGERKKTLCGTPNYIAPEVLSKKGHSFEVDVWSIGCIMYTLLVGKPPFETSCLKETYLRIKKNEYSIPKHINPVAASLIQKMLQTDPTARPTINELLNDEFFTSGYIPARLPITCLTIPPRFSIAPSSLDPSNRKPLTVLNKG

| IC50 [nM] | Structure (SMILES) |
| --- | --- |
| < 100 | CC(Oc1cc(-n2cnc3cc(-c4cnn(C)c4)ccc32)sc1C(N)=O)c1ccnc(OC2CCNCC2)c1 (racemic) [Example 79, (+/−)-5-[5-(1-Methyl-1H-pyrazol-4-yl)-1H-benzimidazol-1-yl]-3-({1-[2-(4-piperidinyloxy)-4-pyridinyl]ethyl}oxy)-2-thiophenecarboxamide] |
| < 100 | C[C@@H](Oc1cc(-n2cnc3cc(Cl)c(Cl)cc32)sc1C(N)=O)c1cccc(OC2CCNCC2)c1Cl [Example 71, 3-({(1R)-1-[2-Chloro-3-(4-piperidinyloxy)phenyl]ethyl}oxy)-5-(5,6-dichloro-1H-benzimidazol-1-yl)-2-thiophenecarboxamide] |
| < 100 | C[C@@H](Oc1cc(-n2cnc3cc(Cl)ccc32)sc1C(N)=O)c1cccc(OC2CCN(CCF)CC2)c1Cl [Example 21, 5-(5-Chloro-1H-benzimidazol-1-yl)-3-{[(1R)-1-(2-chloro-3-{[1-(2-fluoroethyl)-4-piperidinyl]oxy}phenyl)ethyl]oxy}-2-thiophenecarboxamide] |
| < 100 | C[C@@H](Oc1cc(-n2cnc3cc(F)c(Cl)cc32)sc1C(N)=O)c1cccc(OC2CCNCC2)c1Cl [Example 69, 5-(6-Chloro-5-fluoro-1H-benzimidazol-1-yl)-3-({(1R)-1-[2-chloro-3-(4-piperidinyloxy)phenyl]ethyl}oxy)-2-thiophenecarboxamide] |
| < 100 | Cc1ccc(-c2ccc3c(c2)ncn3-c2cc(O[C@H](C)c3cccc(OC4CCN(C)CC4)c3Cl)c(C(N)=O)s2)cn1 [Example 10, 3-[((1R)-1-{2-chloro-3-[(1-methyl-4-piperidinyl)oxy]phenyl}ethyl)oxy]-5-[5-(6-methyl-3-pyridinyl)-1H-benzimidazol-1-yl]-2-thiophenecarboxamide] |
| < 100 | C[C@@H](Oc1cc(-n2cnc3cc(F)c(Cl)cc32)sc1C(N)=O)c1cccc(OC2CCN(C)CC2)c1Cl [Example 70, 5-(6-Chloro-5-fluoro-1H-benzimidazol-1-yl)-3-[((1R)-1-{2-chloro-3-[(1-methyl-4-piperidinyl)oxy]phenyl}ethyl)oxy]-2-thiophenecarboxamide] |
| < 100 | C[C@@H](Oc1cc(-n2cnc3cc(Cl)c(F)cc32)sc1C(N)=O)c1cccc(OC2CCN(C)CC2)c1Cl [Example 68, 5-(5-Chloro-6-fluoro-1H-benzimidazol-1-yl)-3-[((1R)-1-{2-chloro-3-[(1-methyl-4-piperidinyl)oxy]phenyl}ethyl)oxy]-2-thiophenecarboxamide] |
| < 100 | C[C@@H](Oc1cc(-n2cnc3cc(Cl)ccc32)sc1C(N)=O)c1cccc(OC[C@@H]2CNCCO2)c1Cl [Example 28, 5-(5-Chloro-1H-benzimidazol-1-yl)-3-{[(1R)-1-(2-chloro-3-{[(2S)-2-morpholinylmethyl]oxy}phenyl)ethyl]oxy}-2-thiophenecarboxamide] |
| < 100 | C[C@@H](Oc1cc(-n2cnc3ccc(Br)cc32)sc1C(N)=O)c1cccc(OC2CCN(C)CC2)c1Cl [Example 6, 5-(6-Bromo-1H-benzimidazol-1-yl)-3-[((1R)-1-{2-chloro-3-[(1-methyl-4-piperidinyl)oxy]phenyl}ethyl)oxy]-2-thiophenecarboxamide] |
| < 100 | C[C@@H](Oc1cc(-n2cnc3cc(-c4cnn(C)c4)ccc32)sc1C(N)=O)c1cccc(OC2CCN(CCC(F)(F)F)CC2)c1Cl [Example 30, 3-{[(1R)-1-(2-chloro-3-{[1-(3,3,3-trifluoropropyl)-4-piperidinyl]oxy}phenyl)ethyl]oxy}-5-[5-(1-methyl-1H-pyrazol-4-yl)-1H-benzimidazol-1-yl]-2-thiopenecarboxamide] |
| < 100 | C[C@@H](Oc1cc(-n2cnc3ccccc32)sc1C(N)=O)c1cccc(OCCN2CCNCC2)c1Cl [Example 16, 5-(1H-benzimidazol-1-yl)-3-{[(1R)-1-(2-chloro-3-{[2-(1-piperazinyl)ethyl]oxy}phenyl)ethyl]oxy}-2-thiophenecarboxamide] |
| < 100 | C[C@@H](Oc1cc(-n2cnc3cc(-c4cc[n+]([O-])cc4)ccc32)sc1C(N)=O)c1cccc(OC2CCNCC2)c1Cl [Example 37, 3-({(1R)-1-[2-Chloro-3-(4-piperidinyloxy)phenyl]ethyl}oxy)-5-[5-(1-oxido-4-pyridinyl)-1H-benzimidazol-1-yl]-2-thiophenecarboxamide] |
| < 100 | CC(Oc1cc(-n2cnc3cc(-c4cnn(C)c4)ccc32)sc1C(N)=O)c1cccc(OC2CCNCC2)c1F (racemic) [Example 75, (+/−)-3-({1-[2-Fluoro-3-(4-piperidinyloxy)phenyl]ethyl}oxy)-5-[5-(1-methyl-1H-pyrazol-4-yl)-1H-benzimidazol-1-yl]-2-thiophenecarboxamide] |
| < 100 | C[C@@H](Oc1cc(-n2cnc3cc(Cl)ccc32)sc1C(N)=O)c1cccc(OCCN2CCOCC2)c1Cl [Example 26, 5-(5-Chloro-1H-benzimidazol-1-yl)-3-{[(1R)-1-(2-chloro-3-{[2-(4-morpholinyl)ethyl]oxy}phenyl)ethyl]oxy}-2-thiophenecarboxamide] |
| < 100 | C[C@@H](Oc1cc(-n2cnc3cc(Cl)c(F)cc32)sc1C(N)=O)c1cccc(OC2CCNCC2)c1Cl [Example 67, 5-(5-Chloro-6-fluoro-1H-benzimidazol-1-yl)-3-({(1R)-1-[2-chloro-3-(4-piperidinyloxy)phenyl]ethyl}oxy)-2-thiophenecarboxamide] |
| < 100 | COc1cc2ncn(-c3cc(O[C@H](C)c4cccc(OCC5CCN(C(=O)OC(C)(C)C)CC5)c4Cl)c(C(N)=O)s3)c2cc1OC [Example 39, 1,1-Dimethylethyl 4-[({3-[(1R)-1-({2-(aminocarbonyl)-5-[5,6-bis(methyloxy)-1H-benzimidazol-1-yl]-3-thienyl}oxy)ethyl]-2-chlorophenyl}oxy)methyl]-1-piperidinecarboxylate] |
| < 100 | Cc1nnc(-c2ccc3c(c2)ncn3-c2cc(O[C@H](C)c3cccc(OC4CCNCC4)c3Cl)c(C(N)=O)s2)o1 [Example 87, 3-({(1R)-1-[2-Chloro-3-(4-piperidinyloxy)phenyl]ethyl}oxy)-5-[5-(5-methyl-1,3,4-oxadiazol-2-yl)-1H-benzimidazol-1-yl]-2-thiophenecarboxamide] |
| < 100 | CC(Oc1cc(-n2cnc3cc(-c4cnn(C)c4)ccc32)sc1C(N)=O)c1cc(OC2CCNCC2)ccn1 (centres unmarked) [Example 85, 5-[5-(1-Methyl-1H-pyrazol-4-yl)-1H-benzimidazol-1-yl]-3-({1-[4-(4-piperidinyloxy)-2-pyridinyl]ethyl}oxy)-2-thiophenecarboxamide] |
| < 100 | C[C@@H](Oc1cc(-n2cnc3ccccc32)sc1C(N)=O)c1cccc(OC2CCNCC2)c1Cl [Example 14, 5-(1H-Benzimidazol-1-yl)-3-({(1R)-1-[2-chloro-3-(4-piperidinyloxy)phenyl]ethyl}oxy)-2-thiophenecarboxamide] |
| < 100 | C[C@@H](Oc1cc(-n2cnc3cc(-c4cnn(C)c4)ccc32)sc1C(N)=O)c1ccc(F)c(OC2CCN(CCS(C)(=O)=O)CC2)c1Cl [Example 36, 3-({(1R)-1-[2-Chloro-4-fluoro-3-({1-[2-(methylsulfonyl)ethyl]-4-piperidinyl}oxy)phenyl]ethyl}oxy)-5-[5-(1-methyl-1H-pyrazol-4-yl)-1H-benzimidazol-1-yl]-2-thiophenecarboxamide] |
